ChEMBL document CHEMBL6109139, “Rational Design of the First Dual Agonist at Trace Amine-Associated Receptor 1 and 5-HT2C Receptors Based on Binding Pocket Similarity for the Treatment of Schizophrenia and Alzheimer's Disease-Related Psychosis” (J Med Chem, 2025)

Assays:
Cytochrome P450 3A4 = Cytochrome P450 3A4 (Homo sapiens, UniProt P08684); experiment: Inhibition of CYP3A4 in human liver microsomes in presence of NADPH by LC-MS/MS analysis; assay type: ADME, Microsome
[1] = Ratio of drug concentration in male Sprague-Dawley rat brain to plasma at 5 mg/kg, IG measured after 6 hrs by LC-MS/MS analysis; assay type: ADME, organism-based; settings: brain and plasma, po, read-out: BPR
[2] = target: 5-hydroxytryptamine receptor 2C (Mus musculus) (UniProt P34968); experiment: Agonist activity at mouse 5-HT2CR by measuring maximum efficacy relative to control; assay type: functional; settings: filed as agonist
Chain of 5-hydroxytryptamine receptor 2C (Mus musculus) (P34968 whole entry): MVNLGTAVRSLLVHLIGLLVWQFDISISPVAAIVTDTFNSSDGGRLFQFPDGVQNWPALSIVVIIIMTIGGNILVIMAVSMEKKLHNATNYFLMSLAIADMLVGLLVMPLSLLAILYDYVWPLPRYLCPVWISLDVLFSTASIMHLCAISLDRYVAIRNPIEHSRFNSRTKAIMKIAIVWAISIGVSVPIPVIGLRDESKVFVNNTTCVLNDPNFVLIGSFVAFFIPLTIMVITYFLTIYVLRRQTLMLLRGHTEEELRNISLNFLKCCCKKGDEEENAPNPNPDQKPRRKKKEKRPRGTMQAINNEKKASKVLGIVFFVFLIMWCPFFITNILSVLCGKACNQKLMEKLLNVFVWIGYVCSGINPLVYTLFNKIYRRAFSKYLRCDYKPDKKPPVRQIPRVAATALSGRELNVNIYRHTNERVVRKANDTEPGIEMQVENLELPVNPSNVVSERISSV

[3] = target: Trace amine-associated receptor 1 (Rattus norvegicus) (UniProt Q923Y9); experiment: Agonist activity at rat TAAR1 by measuring maximum efficacy relative to control; assay type: functional; settings: filed as agonist
Chain of Trace amine-associated receptor 1 (Rattus norvegicus) (Q923Y9 whole entry): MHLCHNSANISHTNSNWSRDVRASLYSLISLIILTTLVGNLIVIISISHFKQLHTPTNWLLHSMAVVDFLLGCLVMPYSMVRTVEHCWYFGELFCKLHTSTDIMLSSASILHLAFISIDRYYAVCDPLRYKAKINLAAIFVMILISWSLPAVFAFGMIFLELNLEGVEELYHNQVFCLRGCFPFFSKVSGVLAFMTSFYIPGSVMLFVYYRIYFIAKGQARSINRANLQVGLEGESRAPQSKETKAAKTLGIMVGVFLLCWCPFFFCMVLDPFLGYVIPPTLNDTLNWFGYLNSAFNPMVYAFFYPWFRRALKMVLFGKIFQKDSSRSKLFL

[4] = target: 5-hydroxytryptamine receptor 1A (Homo sapiens, UniProt P08908); experiment: Agonist activity at human 5-HT1A expressed in CHO cells coexpressing Galpha15 by FLIPR calcium assay; assay type: functional, cell-based
Chain of 5-hydroxytryptamine receptor 1A (P08908 whole entry): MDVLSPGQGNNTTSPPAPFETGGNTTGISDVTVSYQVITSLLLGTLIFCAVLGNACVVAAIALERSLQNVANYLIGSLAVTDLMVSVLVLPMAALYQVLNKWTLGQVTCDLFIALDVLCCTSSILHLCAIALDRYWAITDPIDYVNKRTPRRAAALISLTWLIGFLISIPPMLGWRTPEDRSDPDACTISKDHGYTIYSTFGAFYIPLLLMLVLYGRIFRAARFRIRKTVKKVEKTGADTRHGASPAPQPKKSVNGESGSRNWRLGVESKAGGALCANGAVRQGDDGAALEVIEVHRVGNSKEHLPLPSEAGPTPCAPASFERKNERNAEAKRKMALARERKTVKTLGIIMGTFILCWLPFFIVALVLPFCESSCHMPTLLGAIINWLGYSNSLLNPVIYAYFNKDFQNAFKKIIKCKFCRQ

D(2) dopamine receptor = D(2) dopamine receptor (Homo sapiens, UniProt P14416); experiment: Antagonist activity at human D2S receptor expressed in Flp-In-CHO cells; assay type: cell-based
Chain of D(2) dopamine receptor (P14416 whole entry): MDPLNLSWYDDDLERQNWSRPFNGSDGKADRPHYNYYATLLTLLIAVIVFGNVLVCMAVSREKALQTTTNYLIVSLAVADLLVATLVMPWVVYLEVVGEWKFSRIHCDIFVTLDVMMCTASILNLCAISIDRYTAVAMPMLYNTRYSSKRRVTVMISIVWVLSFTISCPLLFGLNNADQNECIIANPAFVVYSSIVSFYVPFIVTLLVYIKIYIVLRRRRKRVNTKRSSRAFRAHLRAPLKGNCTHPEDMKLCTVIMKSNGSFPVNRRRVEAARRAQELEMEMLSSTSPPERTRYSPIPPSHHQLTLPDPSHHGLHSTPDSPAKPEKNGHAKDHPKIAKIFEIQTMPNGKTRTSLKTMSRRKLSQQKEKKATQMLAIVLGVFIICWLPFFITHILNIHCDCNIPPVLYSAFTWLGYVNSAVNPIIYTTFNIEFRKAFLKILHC

[5] = target: Prostaglandin G/H synthase 2 (Homo sapiens) (UniProt P35354); experiment: Binding affinity to COX2 (unknown origin) at 10 uM by radioligand binding assay relative to control
Chain of Prostaglandin G/H synthase 2 (Homo sapiens) (P35354 whole entry): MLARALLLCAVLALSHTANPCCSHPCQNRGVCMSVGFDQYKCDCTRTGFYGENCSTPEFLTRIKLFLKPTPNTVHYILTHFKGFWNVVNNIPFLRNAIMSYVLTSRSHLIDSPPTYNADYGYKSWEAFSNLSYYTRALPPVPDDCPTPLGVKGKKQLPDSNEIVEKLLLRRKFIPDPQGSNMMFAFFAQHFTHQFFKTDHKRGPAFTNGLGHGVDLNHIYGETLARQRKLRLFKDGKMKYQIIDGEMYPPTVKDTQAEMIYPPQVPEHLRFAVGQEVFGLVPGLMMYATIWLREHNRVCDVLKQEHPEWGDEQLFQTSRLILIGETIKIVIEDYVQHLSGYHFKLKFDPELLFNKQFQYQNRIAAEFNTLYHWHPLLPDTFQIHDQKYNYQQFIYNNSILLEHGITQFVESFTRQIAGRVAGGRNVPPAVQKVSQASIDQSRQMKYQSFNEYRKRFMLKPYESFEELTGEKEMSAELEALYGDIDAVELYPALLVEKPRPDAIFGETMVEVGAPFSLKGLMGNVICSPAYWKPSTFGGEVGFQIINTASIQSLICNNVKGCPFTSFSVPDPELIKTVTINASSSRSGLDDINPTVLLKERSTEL

[6] = target: Beta-1 adrenergic receptor (Homo sapiens) (UniProt P08588); experiment: Binding affinity to beta 1 receptor (unknown origin) at 10 uM by radioligand binding assay relative to control
Chain of Beta-1 adrenergic receptor (Homo sapiens) (P08588 whole entry, looked up): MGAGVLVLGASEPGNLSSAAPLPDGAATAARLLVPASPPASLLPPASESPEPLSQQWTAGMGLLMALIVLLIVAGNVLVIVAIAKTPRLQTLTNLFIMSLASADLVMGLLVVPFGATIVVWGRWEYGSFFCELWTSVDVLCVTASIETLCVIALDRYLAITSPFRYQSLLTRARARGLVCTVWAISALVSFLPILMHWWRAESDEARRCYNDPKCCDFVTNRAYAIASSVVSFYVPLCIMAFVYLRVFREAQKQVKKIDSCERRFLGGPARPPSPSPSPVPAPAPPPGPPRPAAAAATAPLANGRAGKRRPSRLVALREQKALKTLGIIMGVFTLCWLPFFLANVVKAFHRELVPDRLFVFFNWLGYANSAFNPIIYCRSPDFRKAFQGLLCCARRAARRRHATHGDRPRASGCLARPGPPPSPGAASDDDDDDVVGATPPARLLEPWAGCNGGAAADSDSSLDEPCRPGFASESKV

[7] = target: Glucocorticoid receptor (Homo sapiens) (UniProt P04150); experiment: Binding affinity to GR receptor (unknown origin) at 10 uM by radioligand binding assay relative to control
Chain of Glucocorticoid receptor (Homo sapiens) (P04150 whole entry): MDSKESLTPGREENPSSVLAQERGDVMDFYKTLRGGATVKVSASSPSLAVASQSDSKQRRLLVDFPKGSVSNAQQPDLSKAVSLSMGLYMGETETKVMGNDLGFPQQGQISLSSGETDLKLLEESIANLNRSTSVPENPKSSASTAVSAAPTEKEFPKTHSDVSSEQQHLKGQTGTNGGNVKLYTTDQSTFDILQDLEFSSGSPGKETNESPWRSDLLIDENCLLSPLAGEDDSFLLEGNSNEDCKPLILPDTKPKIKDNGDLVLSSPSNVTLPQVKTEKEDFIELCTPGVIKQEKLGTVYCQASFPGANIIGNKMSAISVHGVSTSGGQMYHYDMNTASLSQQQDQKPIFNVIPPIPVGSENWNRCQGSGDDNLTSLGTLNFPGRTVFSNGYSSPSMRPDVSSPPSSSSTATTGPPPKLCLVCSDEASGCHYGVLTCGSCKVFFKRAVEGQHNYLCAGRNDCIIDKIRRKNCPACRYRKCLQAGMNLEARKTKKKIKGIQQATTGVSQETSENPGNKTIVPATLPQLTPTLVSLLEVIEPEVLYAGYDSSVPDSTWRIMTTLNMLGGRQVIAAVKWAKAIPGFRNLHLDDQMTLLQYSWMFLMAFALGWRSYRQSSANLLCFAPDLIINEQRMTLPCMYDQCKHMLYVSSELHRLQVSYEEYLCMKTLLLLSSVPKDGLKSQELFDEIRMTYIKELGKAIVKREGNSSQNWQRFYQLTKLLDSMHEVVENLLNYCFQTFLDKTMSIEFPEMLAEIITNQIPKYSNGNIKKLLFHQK

KCNQ1 = KCNQ1 (Homo sapiens, UniProt P51787); experiment: Binding affinity to human KCNQ1 receptor at 10 uM by radioligand binding assay relative to control; settings: read-out: Activity
Chain of KCNQ1 (P51787 whole entry): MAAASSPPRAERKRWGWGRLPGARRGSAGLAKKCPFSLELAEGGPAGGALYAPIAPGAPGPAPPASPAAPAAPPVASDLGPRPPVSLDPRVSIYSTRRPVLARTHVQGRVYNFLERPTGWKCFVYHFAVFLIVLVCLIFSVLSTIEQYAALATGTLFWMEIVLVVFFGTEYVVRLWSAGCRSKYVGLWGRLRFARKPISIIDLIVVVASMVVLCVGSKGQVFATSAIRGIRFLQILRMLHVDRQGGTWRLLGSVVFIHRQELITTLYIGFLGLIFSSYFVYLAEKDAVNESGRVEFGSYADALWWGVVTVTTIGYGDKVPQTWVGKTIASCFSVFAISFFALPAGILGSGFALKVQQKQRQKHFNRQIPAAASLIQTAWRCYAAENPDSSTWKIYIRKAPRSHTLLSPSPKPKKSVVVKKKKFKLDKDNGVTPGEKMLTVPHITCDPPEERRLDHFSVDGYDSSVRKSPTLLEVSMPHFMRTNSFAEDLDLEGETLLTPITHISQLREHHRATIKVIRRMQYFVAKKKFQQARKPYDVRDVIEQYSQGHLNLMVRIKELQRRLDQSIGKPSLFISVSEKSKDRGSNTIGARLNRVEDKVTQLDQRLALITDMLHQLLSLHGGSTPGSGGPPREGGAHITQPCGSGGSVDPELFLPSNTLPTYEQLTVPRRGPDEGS

[8] = target: cGMP-inhibited 3',5'-cyclic phosphodiesterase 3A (Homo sapiens) (UniProt Q14432); experiment: Binding affinity to PDE3A receptor (unknown origin) at 10 uM by radioligand binding assay relative to control
[9] = Mutagenicity in Salmonella typhimurium TA1535 by Ames test; assay type: toxicity; settings: salmonella enterica subsp. enterica serovar typhimurium
[10] = target: Glutamate [NMDA] receptor (Homo sapiens) (UniProt Q05586+Q12879+Q13224+O15399+O60391+Q14957+Q8TCU5); experiment: Binding affinity to NMDA receptor (unknown origin) at 10 uM by radioligand binding assay relative to control; assay type: protein-complex assay
[11] = Toxicity in Sprague-Dawley rat assessed as dyskinesia 2.5 to 7.5 mg/kg, po administered once daily for 4 weeks; assay type: organism-based; settings: in vivo, 672 h, dose 2.5-7.5 mg/kg
[12] = Toxicity in male Sprague-Dawley rat assessed as irritability at 7.5 mg/kg, po administered once daily for 4 weeks and measured after 4 weeks; assay type: organism-based; settings: in vivo, 1344 h, time 8 weeks
[13] = Toxicity in female Sprague-Dawley rat assessed as change in clinical chemistry at 2.5 to 7.5 mg/kg, po administered once daily for 4 weeks and measured after 4 weeks; assay type: organism-based; settings: in vivo, 1344 h, dose 2.5-7.5 mg/kg, time 8 weeks
[14] = Toxicity in female Sprague-Dawley rat assessed as change in bone marrow smears at 2.5 to 7.5 mg/kg, po administered once daily for 4 weeks and measured after 4 weeks; assay type: organism-based; settings: in vivo, 1344 h, dose 2.5-7.5 mg/kg, time 8 weeks
[15] = Toxicity in female Beagle dog assessed as change in bone marrow smears at 0.75 to 2.5 mg/kg, IG administered once daily for 4 weeks and measured after 4 weeks; assay type: organism-based, Canis lupus familiaris; settings: in vivo, po, 1344 h, dose 0.75-2.5 mg/kg, time 8 weeks
[16] = Toxicity in female Beagle dog assessed as minimal decrease activity at 2.5 mg/kg, IG administered once daily for 4 weeks; assay type: organism-based, Canis lupus familiaris; settings: in vivo, po, 672 h
[17] = Toxicity in female Beagle dog assessed as minimal decrease activity at 2.5 mg/kg, IG administered once daily for 4 weeks and measured after 4 weeks; assay type: organism-based, Canis lupus familiaris; settings: in vivo, po, 1344 h, time 8 weeks

Chain of Cytochrome P450 3A4 (P08684 whole entry): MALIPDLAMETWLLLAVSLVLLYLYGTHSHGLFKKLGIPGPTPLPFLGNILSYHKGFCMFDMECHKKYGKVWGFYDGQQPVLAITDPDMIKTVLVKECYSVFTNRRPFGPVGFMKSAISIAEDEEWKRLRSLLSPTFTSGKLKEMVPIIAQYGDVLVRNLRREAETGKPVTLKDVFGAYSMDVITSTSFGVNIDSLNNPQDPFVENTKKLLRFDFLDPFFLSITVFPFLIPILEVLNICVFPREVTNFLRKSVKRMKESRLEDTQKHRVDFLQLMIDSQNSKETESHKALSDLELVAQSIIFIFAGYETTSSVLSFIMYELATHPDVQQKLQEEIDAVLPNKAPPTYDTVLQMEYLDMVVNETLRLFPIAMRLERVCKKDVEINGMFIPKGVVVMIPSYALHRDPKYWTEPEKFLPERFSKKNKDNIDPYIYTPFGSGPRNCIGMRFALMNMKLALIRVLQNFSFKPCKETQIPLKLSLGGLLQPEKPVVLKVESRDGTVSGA

With `c1cc2c(s1)[C@@H]1CNCCN1CC2` the IC50 (Cytochrome P450 3A4) was over 50 µM, the Kp at 6 h [1] was 4.22 and the Emax [2] was 103%. It also gave an Emax [3] of 99.5%, an EC50 [4] of 31.5 µM and an IC50 (D(2) dopamine receptor) of over 100 µM. The Activity [5] was 48.5%, the Activity [6] was -0.11% and the Activity [7] was 33.7%. For the same molecule, the activity at 10 µM (KCNQ1) was 28.4%, the Activity [8] was 3.89% and the Activity [9] was “Non-toxic”. The Activity [10] was 4.53%, the Activity [11] was “Non-toxic” and the Activity [12] was “Non-toxic”. For the same molecule, the Activity [13] was “Non-toxic”, the Activity [14] was “Non-toxic” and the Activity [15] was “Non-toxic”. The Activity [16] was “Toxic” and the Activity [17] was “Non-toxic”.
